The source of these data is patent US12655150B2 (Cedilla Therapeutics, Inc., priority 2021, dated 2026).

This experiment concerns NCI-H226. Put plainly: 72H TEAD Proliferation Assay (Cell Titer Glo 2.0). Type of experiment: cell-based. Conditions: Homo sapiens, NCI-H226, 72 h, CTG 2.0, cell line not given (NCI-H226 responsive, NCI-H28 non-responsive). On the procedure: 72H TEAD Proliferation Assay.
The effect of TEAD inhibition on cell proliferation was assayed using Cell Titer Glo (CTG) 2.0 to measure response in mesothelioma cell lines NCI-H226 (ATCC, #CRL-5826) and NCI-H28 (ATCC, #CRL-5820).
The 72H TEAD Proliferation assay utilizes Cell Titer-Glo 2.0 (Promega, #G9243) to measure the proliferation of cells in the presence or absence of compound. Cell Titer-Glo 2.0 determines the amount of viable cells by quantifying ATP (an indication of metabolically active cells). It utilizes the conversion of Luciferin to Oxyluciferin and a luminescent signal with the use of ATP to report the quantity of viable cells in culture. Within cells that are continually growing, ATP is being synthesized to meet their metabolic demands, meanwhile the opposite is true for cells that are dying or slowing down their proliferation and either no longer using ATP or are using less, respectively. The NF2-deficient NCI-H226 has been genetically validated as a cell line that is sensitive to TEAD inhibition. The NF2-wild type NCI-H28 has been genetically validated as a cell line that is not sensitive to TEAD inhibition and grows independently of TEAD activity.
Compounds were screened against the responsive NCI-H226 cell line to assess the compounds' ability to inhibit TEAD and cell growth. Compounds were also screened against the non-responsive NCI-H28 cell line to ascertain whether the inhibition of cell growth was due to inhibition of the target TEAD or whether the inhibition was due to off-target cytotoxicity.
• 1) Assay ready plates (ARPs) were prepared by Echo acoustic liquid handler. […] After CTG addition, plates were placed on shaker at 800 RPM for 15 minutes at room temperature and kept in the dark. Luminescence was measured using EnVision multilabel plate reader with ultra-sensitive detection module. • 9) Data Analysis: First background luminescence (no CTG wells) was subtracted from luminescence reading of all wells, then TO luminescence was subtracted from T72 luminescence. To compare anti-proliferative effect of compounds, GI50 was obtained by fitting dose response curves with nonlinear regression curve fit.

Molecule `O=C(O)c1ccc2c(c1)nc(C1CC1)c1nccn12` [I-70, 4-Cyclopropylimidazo[1,2-a]quinoxaline-7-carboxylic acid] came in with a GI50 of over 10 µM.

`O=C(O)c1ccc2c(c1)nc(C1CCC1)c1nccn12` [I-71, 4-Cyclobutylimidazo[1,2-a]quinoxaline-7-carboxylic acid] registered a GI50 of over 10 µM.

`CC(C)(C)c1ccc(-c2nc3cc(C(=O)O)cc(F)c3n3ccnc23)cc1` [I-72, 4-(4-(tert-Butyl)phenyl)-9-fluoroimidazo[1,2-a]quinoxaline-7-carboxylic acid] gave a GI50 of 5 to 10 µM.

Molecule `CC(C)(C)c1ccc(-c2nc3cc(C(N)=O)ccc3n3ccnc23)cc1` [I-73, 4-(4-(tert-Butyl)phenyl)imidazo[1,2-a]quinoxaline-7-carboxamide] showed a GI50 of 1 to 5 µM.

For `CN(C)C(=O)c1ccc2c(c1)nc(-c1ccc(C(C)(C)C)cc1)c1nccn12` [I-74, 4-(4-(tert-Butyl)phenyl)-N,N-dimethylimidazo[1,2-a]quinoxaline-7-carboxamide], the GI50 lay in the range of 5 to 10 µM.

As for `CC(C)(C)c1ccc(-c2nc3cc(C#N)ccc3n3ccnc23)cc1` [I-75, 4-(4-(tert-Butyl)phenyl)imidazo[1,2-a]quinoxaline-7-carbonitrile], the 50% growth inhibitory concentration (GI50) was over 10 µM.

In turn, `CC(C)(C)c1ccc(-c2nc3cc(-c4nnn[nH]4)ccc3n3ccnc23)cc1` [I-76, 4-(4-(tert-Butyl)phenyl)-7-(1H-tetrazol-5-yl)imidazo[1,2-a]quinoxaline] yielded a GI50 of over 10 µM.

In the case of `CC(C)(C)c1ccc(-c2nc3cc(CO)ccc3n3ccnc23)cc1` [I-77, (4-(4-(tert-Butyl)phenyl)imidazo[1,2-a]quinoxalin-7-yl)methanol], the GI50 is over 10 µM.

Molecule `COCC(C)NC(=O)N1CCc2c(cccc2-c2ccc(C(F)(F)F)cc2)C1` (stereo not shown) [I-78, N-(1-methoxypropan-2-yl)-5-(4-(trifluoromethyl)phenyl)-3,4-dihydroisoquinoline-2(1H)-carboxamide] had a GI50 of at most 1 µM.

`COCC(C)OC(=O)N1CCc2c(cccc2-c2ccc(C(F)(F)F)cc2)C1` (stereo not shown) [I-79, 1-Methoxypropan-2-yl 5-(4-(trifluoromethyl)phenyl)-3,4-dihydroisoquinoline-2(1H)-carboxylate] yielded a GI50 of 1 to 5 µM.

`C=CC(=O)Nc1ccc2cnc(-c3ccc(C(C)(C)C)cc3)nc2c1` [I-80, N-(2-(4-(tert-butyl)phenyl)quinazolin-7-yl)acrylamide] returned a GI50 of at most 1 µM.

In turn, `C=CC(=O)Nc1ccc2cnc(-c3ccc(C)cc3)nc2c1` [I-81, N-(2-(p-Tolyl)quinazolin-7-yl)acrylamide] returned a GI50 of 1 to 5 µM.

The molecule `C=CC(=O)Nc1ccc2cnc(-c3ccc(F)cc3)nc2c1` [I-82, N-(2-(4-Fluorophenyl)quinazolin-7-yl)acrylamide] had a concentration for 50% growth inhibition (GI50) of 1 to 5 µM.

The molecule `Cc1cc2c(-c3ccc(C(C)(C)C)cc3)nc3cc(C(=O)O)ccc3n2c1` [I-83, 4-(4-(tert-Butyl)phenyl)-2-methylpyrrolo[1,2-a]quinoxaline-7-carboxylic acid] came in with a GI50 of 1 to 5 µM.

For `Cc1cc2c(-c3ccc(C(F)(F)F)cc3F)nc3cc(C(=O)O)ccc3n2c1` [I-84, 4-(2-Fluoro-4-(trifluoromethyl)phenyl)-2-methylpyrrolo[1,2-a]quinoxaline-7-carboxylic acid], the GI50 was at most 1 µM.

Turning to `C=CC(=O)Nc1ccc2c(C)cc(-c3ccc(C(F)(F)F)cc3)nc2c1` [I-85, N-(4-Methyl-2-(4-(trifluoromethyl)phenyl)quinolin-7-yl)acrylamide], the GI50 was at most 1 µM.

In turn, `C=CC(=O)Nc1ccc2c(C)cc(-c3ccc(C(C)(C)C)cc3)nc2c1` [I-86, N-(2-(4-(tert-Butyl)phenyl)-4-methylquinolin-7-yl)acrylamide] displayed a GI50 of at most 1 µM.

In the case of `Cc1cc(-c2ccc(C(F)(F)F)cc2F)nc2cc(C(=O)O)ccc12` [I-87, 2-(2-Fluoro-4-(trifluoromethyl)phenyl)-4-methylquinoline-7-carboxylic acid], the GI50 was at most 1 µM.

The molecule `Cc1cc(-c2ccc(C(C)(C)C)cc2)nc2cc(C(=O)O)ccc12` [I-88, 2-(4-(tert-Butyl)phenyl)-4-methylquinoline-7-carboxylic acid] came in with a GI50 of 1 to 5 µM.

On to `Cc1cc(-c2ccc(C(F)(F)F)cc2)nc2cc(C(=O)O)ccc12` [I-89, 4-Methyl-2-(4-(trifluoromethyl)phenyl)quinoline-7-carboxylic acid], for which the GI50 is at most 1 µM.

In turn, `C=CC(=O)Nc1ccc2c(C)cc(-c3ccc(C(F)(F)F)cc3F)nc2c1` [I-90, N-(2-(2-fluoro-4-(trifluoromethyl)phenyl)-4-methylquinolin-7-yl)acrylamide] showed a GI50 of at most 1 µM.

`C=CC(=O)Nc1ccc2c(c1)nc(-c1ccc(C(C)(C)C)cc1)c1nccn12` [I-91, N-(4-(4-(tert-butyl)phenyl)imidazo[1,2-a]quinoxalin-7-yl)acrylamide]: the GI50 was at most 1 µM.

`C=CC(=O)Nc1ccc2ncc(-c3ccc(C(C)(C)C)cc3)nc2c1` [I-92, N-(3-(4-(tert-butyl)phenyl)quinoxalin-6-yl)acrylamide] returned a GI50 of 1 to 5 µM.

Regarding `CC(C)(C)c1ccc(-c2nc(C(=O)O)cn3cnnc23)cc1` [I-93, 8-(4-(tert-Butyl)phenyl)-[1,2,4]triazolo[4,3-a]pyrazine-6-carboxylic acid], the GI50 is over 10 µM.

Turning to `CC(C)(C)c1ccc(-c2nc(C(=O)O)cn3cncc23)cc1` [I-94, 8-(4-(tert-Butyl)phenyl)imidazo[1,5-a]pyrazine-6-carboxylic acid], the GI50 was over 10 µM.

On to `CC(C)(C)c1ccc(-c2cncc3cc(C(=O)O)ccc23)cc1` [I-95, 4-(4-(tert-Butyl)phenyl)isoquinoline-7-carboxylic acid], for which the GI50 is over 10 µM.

Turning to `C=CC(=O)Nc1cn2cccc2c(-c2ccc(C(F)(F)F)cc2)n1` [I-96, N-(1-(4-(trifluoromethyl)phenyl)pyrrolo[1,2-a]pyrazin-3-yl)acrylamide], the 50% growth inhibitory concentration (GI50) was at most 1 µM.

Take `CC(C)(C)c1ccc(-c2cncc3c(C(=O)O)c[nH]c23)cc1` [I-97, 7-(4-(tert-Butyl)phenyl)-1H-pyrrolo[3,2-c] pyridine-3-carboxylic acid]: the GI50 is over 10 µM.

In turn, `C=CC(=O)Nc1ccc2cc(C)c(-c3ccc(C(C)(C)C)cc3)nc2c1` [I-98, N-(2-(4-(tert-butyl)phenyl)-3-methylquinolin-7-yl)acrylamide] displayed a GI50 of at most 1 µM.

Consider `C=CC(=O)Nc1cccc2nc(-c3ccc(C(C)(C)C)cc3)c(C)cc12` [I-99, N-(2-(4-(tert-butyl)phenyl)-3-methylquinolin-5-yl)acrylamide], for which the GI50 is over 10 µM.

The molecule `C=CC(=O)Nc1ncc2c(ccn2-c2ccc(C(C)(C)C)cc2)n1` [I-100, N-(5-(4-(tert-butyl)phenyl)-5H-pyrrolo[3,2-d]pyrimidin-2-yl)acrylamide] came in with a GI50 of 5 to 10 µM.

As for `CC(C)(C)c1ccc(-n2ccc3cc(C(=O)O)ccc32)cc1` [I-101, 1-(4-(tert-Butyl)phenyl)-1H-indole-5-carboxylic acid], the 50% growth inhibitory concentration (GI50) was over 10 µM.

For `C=CC(=O)Nc1cn2cccc2c(-c2ccc(C3(C(F)(F)F)CC3)cc2)n1` [I-102, N-(1-(4-(1-(trifluoromethyl)cyclopropyl)phenyl)pyrrolo[1,2-a]pyrazin-3-yl)acrylamide], the GI50 is at most 1 µM.

Molecule `C=CC(=O)Nc1cc(-c2ccc(C(C)(C)C)cc2)nc2cc(C(=O)O)ccc12` [I-103, 4-Acrylamido-2-(4-(tert-butyl)phenyl)quinoline-7-carboxylic acid] had a GI50 of over 10 µM.

As to `C=CC(=O)Nc1nc(-c2ccc(C(C)(C)C)cc2)nc2cc(C(=O)O)ccc12` [I-104, 4-Acrylamido-2-(4-(tert-butyl)phenyl)quinazoline-7-carboxylic acid], the 50% growth inhibitory concentration (GI50) is over 10 µM.

Consider `C=CC(=O)n1ccc2c(-c3ccc(C(C)(C)C)cc3)nccc21` [I-105, 1-(4-(4-(tert-Butyl)phenyl)-1H-pyrrolo[3,2-c]pyridin-1-yl)prop-2-en-1-one], for which the GI50 lay in the range of 1 to 5 µM.

With `C=CC(=O)Nc1ccc2ccc(-c3ccc(C(C)(C)C)cc3)nc2c1` [I-106, N-(2-(4-(tert-butyl)phenyl)quinolin-7-yl)acrylamide], the GI50 lay in the range of 1 to 5 µM.

For `O=C(O)c1ccc2c(c1)nc(NCCC(F)(F)F)c1cccn12` [I-107, 4-((3,3,3-Trifluoropropyl)amino)pyrrolo[1,2-a]quinoxaline-7-carboxylic acid], the GI50 was over 10 µM.

The molecule `CC(C)(C)c1ccc(-c2nc3cc(C(=O)O)ccc3n3cc(F)cc23)cc1` [I-108, 4-(4-(tert-Butyl)phenyl)-2-fluoropyrrolo[1,2-a]quinoxaline-7-carboxylic acid] came in with a GI50 of 1 to 5 µM.

Molecule `C=CC(=O)NCc1cn2ccnc2c(-c2ccc(C(F)(F)F)cc2)n1` [I-109, N-((8-(4-(trifluoromethyl)phenyl)imidazo[1,2-a]pyrazin-6-yl)methyl)acrylamide] had a GI50 of at most 1 µM.
